In patent EP0145314A1, “Antifungal triazole compound” (IMPERIAL CHEMICAL INDUSTRIES PLC, priority 1983, dated 1985):

Key:
[1] = tested on: Candida albicans and Trichophyton mentagrophytes var. quinkeanum; assay: Oral antifungal test in mice inoculated with Candida (vagina) and Trichophyton (back), minimum effective dose; format: in vivo; settings: 168 h; female mice, oral dosing twice on day 0 and once daily on days 1-4; skin lesions scored and vaginal samples cultured on day 7; read-out: minimum effective dose (MED)
Experimental: The following Monday (day 0) they are clipped on the back and then dosed orally with the test compound. They are then inoculated with Candida albicans in the vagina and Trichophyton mentagrophytes var. quinkeanum on the back, and then given a second dose of the same compound. Dosing is repeated once daily on days 1-4. On day 7 skin lesions are scored visually and vaginal samples taken for culture on agar. Groups of 5 mice are used and the compound is dosed initially at a level of 250 mg./kg. The dose is then reduced sequentially until a minimum effective dose (MED) is found. The MED for 2-(2-fluoro-4-trifluoromethylphenyl)-l,3-di(l,2,4-triazol-l-yl)-2-propanol in this test was 5 mg. per kg.

[2] = Teratogenicity / maternal toxicity in the rabbit; format: in vivo; settings: lowest dose at which impaired maternal weight gain was observed
Experimental: As indicated above, the compound of this invention has been found not to be teratogenic at doses up to the maternally toxic dose. In both the rabbit and the rat, the maternally toxic dose was taken to be the lowest dose at which impaired maternal weight gain was observed. In the rabbit, this dose was 10 mg./kg. and in the rat between 25 and 50 mg./kg.

With `OC(Cn1cncn1)(Cn1cncn1)c1ccc(C(F)(F)F)cc1F` [2-(2-fluoro-4-trifluoromethylphenyl)-l,3-di(l,2,4-triazol-l-yl)-2-propanol] the minimal effective dose [1] was 5 mg/kg and the maternally toxic dose [2] was 10 mg/kg.
